One data set has as its system HO-c-Myc cells. As to the kind of experiment: Secondary filter for Myc specificity: cell growth inhibition, methylene blue staining. Conditions: for Myc Index C: ID50 in HO-null cells divided by ID50 in HO-c-myc cells; for IC50: Rattus norvegicus, cell growth inhibition, 72 h, methylene blue, read-out: ID50 HO-c-myc. In kind it is cell-based, rat. The protocol:
(§1) FIG. 4 illustrates the myc specificity of tested compounds. Rat1a cells expressing c-myc, L-myc or N-myc or lacking any Myc (null) were treated for 72 h with a range of hit compound concentrations. The cells were then fixed and stained with methylene blue and the percentage of cells in the presence of compound compared to DMSO only control was calculated.
(§2) Validated hits were divided into classes when two or more compounds shared significant structural similarity. The ID50 for N-myc transactivation (the inhibitory dose resulting in 50% decrease in luciferase activity) for each hit was calculated from the dose-response N-myc responsive reporter assay. Compounds within each class were ranked by their ID50 for N-myc transactivation and the best compounds within each class were chosen for further studies. In addition, the best of the structurally unique compounds were also analyzed. A total of 46 hits were passed through a secondary filter designed to determine the specificity of the hits for Myc proteins. For this filter, we used a panel of cell lines derived from Rat1a cells (kindly provided by Michael Cole, Dartmouth University): HO-null-c-Myc deficient cells due to homologous recombination that express neither N-myc nor L-myc HO-c-Myc, HO-L-myc and HO-N-myc derived by retroviral transduction of the corresponding Myc genes into HO-null cells. Since each cell line expresses only a single Myc or no Myc family members, we could identify compounds that act through Myc family members as well as which Myc family members. […] The 18 Myc-specific compounds identified during the screening and filtering process are presented in Table 1 and represent distinct classes of molecules, including pyrazoles (e.g., N147A7, N47E10, N147G5), tetrazoles (e.g., N77A7) and 3-bromophenol (e.g., N4G6).

The test system of a further data set is HO-N-myc cells. The description is as above. In kind it is cell-based, rat. The note with it: for Myc Index N: ID50 in HO-null cells divided by ID50 in HO—N-myc cells; for IC50: Rattus norvegicus, cell growth inhibition, 72 h, methylene blue, read-out: ID50 HO—N-myc. On the procedure:
as §1, §2

In a further data set the test system is HO-null cells. The description is as above. Conditions: Rattus norvegicus, 72 h, read-out: ID50 HO-null. In kind it is cell-based. On the procedure: as §1, §2
The nature of data set [1]: Metabolic stability in human liver microsomes. The note with it: for Percent Remaining 10 min / Percent Remaining 30 min / Percent Remaining 60 min: 1 μM test compound (testosterone 5 μM); for Percent Remaining 0 min: 1 μM test compound (testosterone positive control 5 μM); for half-life at 1 µM: microsomes, pH 7.4. On the procedure:
Additionally, several of the N77A7 analogs were subjected to the test for the metabolic stability in human and mouse liver microsomes. Briefly, 1 μM of test compound was incubated with microsomal protein (human liver microsomes: 0.5 mg/mL; mouse liver microsomes 0.5 mg/mL) and buffer (100 mM potassium phosphate, pH 7.4, 5 mM magnesium chloride). The positive control was 5 μM testosterone. The reaction was equilibrated at 37 C in a shaking water bath for 3 to 5 minutes. After equilibration, an aliquot was removed and combined with 50/50 acetonitrile/water containing 0.1% formic acid and internal standard to terminate the reaction. 1 mM NADPH was immediately added and the tube was returned to the water bath. Five sample time points were taken (0, 10, 20, 30, and 60 minutes). Aliquots were removed and combined with 50/50 acetonitrile/water containing 0.1% formic acid and internal standard to terminate the reaction. The samples were mixed for 10 minutes and centrifuged. The supernatant from each sample was diluted (if necessary) and then transferred to vials for analysis by LC-MS/MS for the test compound and internal standard without calibration standards. The percent remaining at each time point was determined by the test compound's peak area response ratio versus the 0 minute sample.
(Microsomes from liver hold many membrane-bound enzymes, among them those of drug oxidation.)

Setting [2] is: human liver microsomes 0.5 mg/mL.
[3] abbreviates: mouse liver microsomes 0.5 mg/mL.

As a reminder, the half-life is the time needed for the level to fall by half in the phase considered. Read a high half-life as slow loss.

SMILES strings stand for the structures.

For `O=C(N/N=C\c1cc(Cc2ccccc2Cl)ccc1O)c1cncc(Br)c1` [Compound N171H10], the “Myc Index C” value with HO-c-Myc cells is reported as more than 10. Also, the IC50 with HO-c-Myc cells is 2.6 µM; with HO-N-myc cells, 4 µM; with HO-null cells, more than 25 µM. For the same compound, in the data set on HO-N-myc cells, the “Myc Index N” value is reported as more than 6.
For `CC(=O)NC(c1ccc2c(c1)OCO2)c1ccc2cccnc2c1O` (stereo not shown) [Compound N103A8] the same measures were 4.7, 1.62 µM, 1.69 µM, 7.57 µM and 4.5.
The corresponding values for `CCN(CC)c1ccc(/C=N/NC(=O)c2cc(Br)ccc2O)c(O)c1` [Compound N6008] are more than 11, 2.32 µM, 2.34 µM, more than 25 µM and more than 11.
On to `c1ccc(-c2nnc(-c3ccccn3)nc2-c2ccccc2)cc1` [Compound N49C4], for which the IC50 with HO-c-Myc cells was 19.6 µM; with HO-N-myc cells, approximately 728 µM; in the data set on HO-null cells, 159 µM. Besides, the “Myc Index N” value in the data set on HO-N-myc cells is 8.1.
Regarding `COc1ccc(OCC(=O)N/N=C\c2cc(O)c(O)c(Br)c2)c(Br)c1` [Compound N4G6], in the data set on HO-c-Myc cells, the “Myc Index C” value was more than 3. In addition, the IC50 in the data set with HO-c-Myc cells is 32.6 µM; in the data set on HO-N-myc cells it was 10.2 µM; with HO-null cells, more than 100 µM. Further, the “Myc Index N” value with HO-N-myc cells was more than 10.
With `O=C(NC(NC(=S)Nc1ccc(I)cc1)C(Cl)(Cl)Cl)c1cccc([N+](=O)[O-])c1` (stereo not shown) [Compound N121F3], in the data set on HO-c-Myc cells, the “Myc Index C” value is 2.1 and the IC50 was 11.3 µM. In the data set on HO-N-myc cells, the “Myc Index N” value is 2.4 and the IC50 worked out at 9.7 µM. The IC50 with HO-null cells came out at 23.5 µM.
As to `C=CCc1cccc(/C=N/NC(=O)c2cc(C(C)(C)C)n[nH]2)c1O` [Compound N147G5], in the data set with HO-c-Myc cells, the “Myc Index C” value is more than 6 and the IC50 stood at 4.2 µM. For the same compound, in the data set on HO-N-myc cells, the “Myc Index N” value is on record as more than 5 and the IC50 amounted to 5 µM. In the data set with HO-null cells, the IC50 is more than 25 µM.
Take `CCOc1cccc(/C=N/NC(=O)CSc2nc3ccccc3[nH]2)c1O` [Compound N144G3]: the “Myc Index C” value in the data set with HO-c-Myc cells came out at 3.22. For the same compound, the IC50 in the data set on HO-c-Myc cells was determined as 25.8 µM; in the data set with HO-N-myc cells, 17.8 µM; with HO-null cells, 83.2 µM. Besides, the “Myc Index N” value with HO-N-myc cells was determined as 4.7.
Regarding `O=C(COc1ccc2ccccc2c1)N/N=C\c1cc(O)c(O)c(Br)c1` [Compound N4D2], in the data set on HO-c-Myc cells, the “Myc Index C” value was more than 3 and the IC50 was 33.8 µM. Besides, in the data set on HO-N-myc cells, the “Myc Index N” value is given as more than 1.1 and the IC50 came to 88 µM. In addition, the IC50 with HO-null cells is more than 100 µM.
Take `O=C(N/N=C/c1c(O)ccc2ccccc12)c1cc(C23CC4CC(CC(C4)C2)C3)n[nH]1` [Compound N147A7]: in the data set on HO-c-Myc cells, the “Myc Index C” value was 1.3 and the IC50 came out at 3.94 µM. For the same compound, in the data set with HO-N-myc cells, the “Myc Index N” value is 2.7 and the IC50 was 1.9 µM. The IC50 in the data set with HO-null cells stood at 5.12 µM.
For the compound `C[C@]12CC[C@H]3[C@@H](CCC4=CC(=O)CC[C@@]43C)[C@@H]1CC[C@@H]2O` [Testosterone, testosterone, reference compound], in data set [1] (setting [2]), the “Percent Remaining 10 min” value is 78%, the “Percent Remaining 30 min” value is 40%, the “Percent Remaining 60 min” value came out at 19% and the “Percent Remaining 0 min” value came out at 100%. In data set [1] (human), this compound returned a half-life at 1 µM of 23.9 min. Besides, in data set [1] (setting [3]), the “Percent Remaining 10 min” value turned out to be 19%, the “Percent Remaining 30 min” value was less than 1.0%, the “Percent Remaining 60 min” value is recorded as less than 1.0% and the “Percent Remaining 0 min” value was found to be 100%. For the same compound, the half-life at 1 µM in data set [1] (mouse) came out at 4.2 min.
As to `O=C(Oc1c(C(=O)Nc2ccc(Cl)c([N+](=O)[O-])c2)ccc2ccccc12)c1ccccc1` [Compound N6A8], the “Myc Index C” value with HO-c-Myc cells is 2.4. Moreover, the IC50 was 8.86 µM with HO-c-Myc cells, 9.71 µM in the data set on HO-N-myc cells and 21.1 µM in the data set with HO-null cells. Moreover, the “Myc Index N” value in the data set with HO-N-myc cells is listed as 2.2.

The values above are taken from patent US9387213B2, “Small molecules inhibiting oncoprotein Myc” (Health Research, Inc., priority 2012, dated 2016).
